Data set [1] deals with human iPSC-derived kidney organoids. Nature of the data set: Comparison of PI3K inhibitors on kidney organoids. The format is cell-based.
Method: Small-molecule inhibitor screen and culture optimization: For all small molecule inhibitors used in this study, initial screens were performed on kidney organoids to determine the optimal dosage and duration of culture. […] Concentrations tested used insights from prior studies. After an ideal concentration was established, to determine optimal duration of treatment with the small molecule, separate differentiation experiments were set up with the small molecule from differentiation days 10 to 18, as well as differentiation days 12 to 18. For all optimization screens, time-course bright-field imaging was performed, and organoids were collected for whole-mount immunofluorescent analyses on differentiation day 18. […] Small-molecule inhibitor screen and culture optimization: For all small molecule inhibitors used in this study, initial screens were performed on kidney organoids to determine the optimal dosage and duration of culture. […] After an ideal concentration was established, to determine optimal duration of treatment with the small molecule, separate differentiation experiments were set up with the small molecule from differentiation days 10 to 18, as well as differentiation days 12 to 18. For all optimization screens, time-course bright-field imaging was performed, and organoids were collected for whole-mount immunofluorescent analyses on differentiation day 18.
For data set [2], the system named is control and proximal-biased kidney organoids. The data set is described as follows: In vitro cisplatin injury assay. The format is cell-based, human. The conditions noted are these: for HNF4A/SOX9 cell state: single cisplatin-dose. The method, then:
In vitro cisplatin injury assay: For the kidney organoid cisplatin injury assay, the study adapted an approach undertaken by two recent studies. Differentiation day 18 control and proximal-biased organoids were incubated overnight (18 hrs) at 37° C./5% CO2 in TeSR-E6 supplemented with 5 μM cisplatin (Millipore Sigma, 232120). […] Uninjured organoids were cultured with DMSO vehicle. Organoids were then processed for immunofluorescent imaging and analyses. In vitro cisplatin injury assay: For the kidney organoid cisplatin injury assay, the study adapted an approach undertaken by two recent studies. Differentiation day 18 control and proximal-biased organoids were incubated overnight (18 hours) at 37° C./5% CO2 in TeSR-E6 supplemented with 5 μM cisplatin (Millipore Sigma, 232120). Organoids recovered between days 19 and 20, before another overnight culture (18 hours) between days 20 and 21 with 5 μM cisplatin. Uninjured organoids were cultured with DMSO vehicle. Organoids were then processed for immunofluorescent imaging and analyses.

For data set [3], the system named is day 21 proximal-biased kidney organoids. The data set is described as follows: Single-nucleus RNA-sequencing of cisplatin-treated PB organoids. The conditions noted are these: day 21, double-dose. Type of data set: cell-based, human. How it is done: Single-nucleus preparation of kidney organoids: For single-nucleus RNA-sequencing, the same number of organoids from multiple independent wells were snap-frozen in liquid nitrogen before nuclei isolation. Briefly, organoids were transferred to a 1.7 mL low binding tube, centrifuged to form a pellet, and snap-frozen in liquid nitrogen. Flash-frozen organoids were dounced in cold Nuclei EZ Lysis Buffer (Sigma, N3408) supplemented with protease inhibitor (Roche, 05892791001). Homogenization was performed using a loose pestle and tight pestle system (Sigma, P0485) with 15 loose-dounce strokes, followed by filtration through a 200 μm strainer (pluriSelect, 43-50200). The homogenate was then subjected to an additional 5 strokes with the tight pestle and incubated on ice for 5 minutes. The suspension was filtered through a 40 μm strainer (pluriSelect, 43-50040) and centrifuged at 500×g for 5 minutes at 4° C. in a swinging-bucket centrifuge. After removing the supernatant, the nuclei pellet was resuspended in just Nuclei EZ Lysis Buffer, incubated on ice for an additional 5 minutes, and centrifuged again. […]
Single-nucleus processing and sequencing: Single-nucleus RNA-sequencing libraries were generated using the 10× Genomics Chromium Next GEM Single Cell Multiome reagents (PN 1000283) following the manufacturer's protocols (10× Genomics; CG000338 Rev E). Briefly, freshly prepared single-nuclei suspensions were counted on a Countess 3 FL cell counter and approximately 9,000 nuclei per condition went through 1 hour of transposition at 37° C. followed by GEM generation and barcoding on a Chromium X machine with immediate subsequent RT reaction. cDNA was generated from 7 preAmp cycles and 8 cDNA cycles. […]
Single-nucleus RNA-sequencing analyses: Single-nucleus RNA-sequencing data was processed using Cell Ranger (v9.0.0) and the Seurat 5.2 R package. […] Feature-barcode matrices were subsequently imported into Seurat using the Read10× function. […]

The record followed here is patent US20250368963A1, “PROXIMAL-BIASED KIDNEY ORGANOIDS” (UNIVERSITY OF SOUTHERN CALIFORNIA, priority 2024, published 2025).

In the case of `CS(=O)(=O)N1CCN(Cc2cc3nc(-c4cccc5[nH]ncc45)nc(N4CCOCC4)c3s2)CC1` [GDC-0941], the “efficacy relative to LY294002” value in data set [1] (FIG. 11) is recorded as “slightly less efficacy than LY294002”. The “proximal-biasing phenotype of PI3K inhibition” value in data set [1] (second, structurally different PI3K inhibitor) is reported as “confirmed”.

Regarding `N.N.[Cl][Pt][Cl]` [cisplatin], the “tubular integrity and apicobasal polarity” value in data set [2] (ATP1A1 and LAMB1 distribution, injured nephrons) was “loss of tubular integrity and apicobasal polarity”. Besides, the “SOX9 response to injury” value in data set [2] (PB kidney organoid nephrons, double dose) was “activated SOX9”. In data set [2] (cisplatin-injured PB nephrons, day 21), the “correlation of HNF4A protein levels with γH2AX (r)” value is −0.67. For the same compound, the “sensitivity of PB nephrons” value in data set [2] (day 18, 5 μM, 72 hrs) is listed as “sensitive”. The “uninterrupted tubular lumens longer in uninjured samples” value in data set [2] (day 21 PB organoids, uninjured vs injured) came to 2.82 fold. For the same compound, the “KIM1/HAVCR1 protein abundance higher in PB organoid nephrons” value in data set [2] (day 21 following injury, PB vs control organoid nephrons) is listed as 1.56 fold. In addition, the HNF4A/SOX9 cell state entry in data set [2] (1 day post-injury) is given as “HNF4AHIGH/SOX9LOW”; in data set [2] (3 days post-injury), “HNF4AMED/SOX9MED”; in data set [2] (6 days post-injury), “HNF4ALOW/SOX9HIGH”. Further, the “KIM1/HAVCR1 in HNF4A+ PB nephron cells” value in data set [2] (two staggered doses 5 μM, assayed 3 days after initial injury, PB organoids) was “strong detection”. Moreover, the “KIM1/HAVCR1 in injured control organoids” value in data set [2] (two staggered doses 5 μM, control organoids) was “sparse”. The “HAVCR1 and SOX9 detection in injured cells” value in data set [3] (vs uninjured) was “higher detection”. For the same compound, the KRT17 detection result in data set [3] (proximal subset) is recorded as “exclusively detected in the injured population”. Besides, in data set [3] (proximal subset), the “cells positive for injury markers that originated from the injured population” value was “approximately 75%”.
